Assay results published in patent US8901118B2, “Compounds and methods for kinase modulation, and indications therefor” (Plexxikon Inc., priority 2010, dated 2014).
pIC50: −log10 of the molar value.

Assays:
Type in all cases: cell-based
[1] = molecular target: T1, BCR-FMS BaF3 cells (Homo sapiens, UniProt P07333); assay: BaF3 BCR-FMS cell proliferation assay (ATPlite); conditions: read-out: Inhibition of Cell Proliferation IC50, BCR/BaF3 Fms
T1 construct: fused on or other part: P11274 (Breakpoint cluster region protein)
T1 sequence (P07333 582-910): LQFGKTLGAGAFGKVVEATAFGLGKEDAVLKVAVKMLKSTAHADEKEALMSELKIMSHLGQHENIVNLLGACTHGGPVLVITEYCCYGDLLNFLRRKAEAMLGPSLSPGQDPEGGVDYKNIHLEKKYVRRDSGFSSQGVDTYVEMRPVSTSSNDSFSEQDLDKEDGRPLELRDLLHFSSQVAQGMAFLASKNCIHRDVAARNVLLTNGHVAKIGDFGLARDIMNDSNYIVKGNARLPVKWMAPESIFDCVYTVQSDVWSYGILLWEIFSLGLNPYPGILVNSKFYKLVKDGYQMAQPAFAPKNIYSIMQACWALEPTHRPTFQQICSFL
Procedure, shortened: (§1)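 Growth inhibition over 3 days at 37 °C; IC50 from ATPlite luminescence, 8 concentrations (1:3 steps, max 10 μM). BaF3 fusion lines were tested without IL-3.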

[2] = molecular target: T2, BCR-KIT BaF3 cells (Homo sapiens, UniProt P10721); assay: BaF3 BCR-KIT cell proliferation assay (ATPlite); conditions: read-out: Inhibition of Cell Proliferation IC50, BCR/BaF3 Kit
T2 construct: fused on or other part: P11274 (Breakpoint cluster region protein)
T2 sequence (P10721 589-937): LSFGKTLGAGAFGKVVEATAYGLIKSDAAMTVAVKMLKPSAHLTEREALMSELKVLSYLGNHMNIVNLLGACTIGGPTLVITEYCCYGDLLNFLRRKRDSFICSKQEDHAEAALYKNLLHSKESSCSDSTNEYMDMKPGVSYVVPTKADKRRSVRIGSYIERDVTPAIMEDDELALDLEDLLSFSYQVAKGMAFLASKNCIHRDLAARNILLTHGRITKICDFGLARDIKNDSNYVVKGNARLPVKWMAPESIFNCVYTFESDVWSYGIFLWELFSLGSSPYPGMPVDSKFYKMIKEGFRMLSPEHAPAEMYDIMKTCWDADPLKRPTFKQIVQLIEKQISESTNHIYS
Procedure, shortened: as §1

[3] = molecular target: T3, BCR-NTRK3 BaF3 cells (Homo sapiens, UniProt Q16288); assay: BaF3 BCR-NTRK3 cell proliferation assay (ATPlite); conditions: read-out: Inhibition of Cell Proliferation IC50, BCR/BaF3 TrkC
T3 construct: fused on or other part: P11274 (Breakpoint cluster region protein)
T3 sequence (Q16288 whole entry, the tested form may be a part): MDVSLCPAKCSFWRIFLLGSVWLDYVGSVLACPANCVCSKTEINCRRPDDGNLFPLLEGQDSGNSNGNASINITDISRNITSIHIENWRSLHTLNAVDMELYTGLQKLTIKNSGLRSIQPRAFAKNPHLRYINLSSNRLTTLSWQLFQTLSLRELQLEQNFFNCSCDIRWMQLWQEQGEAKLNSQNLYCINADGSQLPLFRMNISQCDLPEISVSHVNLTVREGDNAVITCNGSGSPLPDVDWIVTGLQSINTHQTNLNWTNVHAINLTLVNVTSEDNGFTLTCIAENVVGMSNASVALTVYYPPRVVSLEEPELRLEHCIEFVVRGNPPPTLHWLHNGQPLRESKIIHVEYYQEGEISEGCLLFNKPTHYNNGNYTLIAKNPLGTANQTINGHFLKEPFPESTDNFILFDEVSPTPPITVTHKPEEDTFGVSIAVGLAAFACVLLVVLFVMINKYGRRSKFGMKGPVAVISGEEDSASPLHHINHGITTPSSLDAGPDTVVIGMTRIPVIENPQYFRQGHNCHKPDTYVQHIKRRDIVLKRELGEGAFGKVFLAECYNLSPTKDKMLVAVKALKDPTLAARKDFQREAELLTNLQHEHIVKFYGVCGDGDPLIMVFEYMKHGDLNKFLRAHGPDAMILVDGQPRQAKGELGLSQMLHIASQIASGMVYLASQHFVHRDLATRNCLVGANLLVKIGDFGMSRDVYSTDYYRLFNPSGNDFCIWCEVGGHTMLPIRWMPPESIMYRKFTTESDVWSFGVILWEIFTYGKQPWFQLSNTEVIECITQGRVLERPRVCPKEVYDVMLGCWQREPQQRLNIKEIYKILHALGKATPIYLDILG
Procedure, shortened: as §1

Row | pIC50 [1] | pIC50 [2] | pIC50 [3] | SMILES
1 | > 6.00 | < 6.00 | – | Clc1cnc2[nH]cc(Cc3cnc(NC4CCCC4)nc3)c2c1 [Compound P-3003, [5-(5-Chloro-1H-pyrrolo[2,3-b]pyridin-3-ylmethyl)-pyrimidin-2-yl]-cyclopentyl-amine]
2 | > 6.00 | < 6.00 | < 5.00 | Clc1cnc2[nH]cc(Cc3cnc(NC4CC4)nc3)c2c1 [Compound P-3005, [5-(5-Chloro-1H-pyrrolo[2,3-b]pyridin-3-ylmethyl)-pyrimidin-2-yl]-cyclopropyl-amine]
3 | > 6.00 | < 6.00 | < 5.00 | COc1ccccc1Nc1ncc(Cc2c[nH]c3ncc(Cl)cc23)cn1 [Compound P-3016, [5-(5-Chloro-1H-pyrrolo[2,3-b]pyridin-3-ylmethyl)-pyrimidin-2-yl]-(2-methoxy-phenyl)-amine]
4 | > 6.00 | < 6.00 | < 5.00 | Fc1cccc(Nc2ncc(Cc3c[nH]c4ncc(Cl)cc34)cn2)c1 [Compound P-3017, [5-(5-Chloro-1H-pyrrolo[2,3-b]pyridin-3-ylmethyl)-pyrimidin-2-yl]-(3-fluoro-phenyl)-amine]
5 | > 8.00 | > 7.00 | > 7.00 | COc1ccc(Nc2ncc(Cc3c[nH]c4ncc(C)cc34)cn2)cn1 [Compound P-3020, (6-Methoxy-pyridin-3-yl)-[5-(5-methyl-1H-pyrrolo[2,3-b]pyridin-3-ylmethyl)-pyrimidin-2-yl]-amine]
6 | > 8.00 | > 7.00 | > 7.00 | COc1ccc(Nc2ncc(Cc3c[nH]c4ncc(C)cc34)cn2)cc1 [Compound P-3021, (4-Methoxy-phenyl)-[5-(5-methyl-1H-pyrrolo[2,3-b]pyridin-3-ylmethyl)-pyrimidin-2-yl]-amine]
7 | > 7.00 | > 7.00 | > 6.00 | COc1cc(Nc2ncc(Cc3c[nH]c4ncc(C)cc34)cn2)ccc1F [Compound P-3022, (4-Fluoro-3-methoxy-phenyl)-[5-(5-methyl-1H-pyrrolo[2,3-b]pyridin-3-ylmethyl)-pyrimidin-2-yl]-amine]
8 | > 7.00 | > 7.00 | > 6.00 | COc1ccc(Nc2ncc(Cc3c[nH]c4ncc(C)cc34)cn2)cc1F [Compound P-3023, (3-Fluoro-4-methoxy-phenyl)-[5-(5-methyl-1H-pyrrolo[2,3-b]pyridin-3-ylmethyl)-pyrimidin-2-yl]-amine]
9 | > 8.00 | > 7.00 | > 7.00 | CCCOc1ccc(Nc2ncc(Cc3c[nH]c4ncc(C)cc34)cn2)cc1 [Compound P-3024, [5-(5-Methyl-1H-pyrrolo[2,3-b]pyridin-3-ylmethyl)-pyrimidin-2-yl]-(4-propoxy-phenyl)-amine]
10 | > 8.00 | > 8.00 | > 8.00 | CCc1ccc(Nc2ncc(Cc3c[nH]c4ncc(C)cc34)cn2)cc1 [Compound P-3025, (4-Ethyl-phenyl)-[5-(5-methyl-1H-pyrrolo[2,3-b]pyridin-3-ylmethyl)-pyrimidin-2-yl]-amine]
11 | > 8.00 | > 7.00 | > 7.00 | CCOc1ccc(Nc2ncc(Cc3c[nH]c4ncc(C)cc34)cn2)cc1 [Compound P-3026, (4-Ethoxy-phenyl)-[5-(5-methyl-1H-pyrrolo[2,3-b]pyridin-3-ylmethyl)-pyrimidin-2-yl]-amine]
12 | > 8.00 | > 7.00 | > 7.00 | CCOc1ccc(Nc2ncc(Cc3c[nH]c4ncc(C)cc34)cn2)cn1 [Compound P-3027, (6-Ethoxy-pyridin-3-yl)-[5-(5-methyl-1H-pyrrolo[2,3-b]pyridin-3-ylmethyl)-pyrimidin-2-yl]-amine]
13 | > 6.00 | > 7.00 | > 7.00 | Cc1cnc2[nH]cc(Cc3cnc(Nc4cc(-c5ccc(F)cc5)n[nH]4)nc3)c2c1 [Compound P-3028, [5-(4-Fluoro-phenyl)-2H-pyrazol-3-yl]-[5-(5-methyl-1H-pyrrolo[2,3-b]pyridin-3-ylmethyl)-pyrimidin-2-yl]-amine]
14 | > 7.00 | > 6.00 | > 6.00 | Cc1cnc2[nH]cc(Cc3cnc(Nc4cc(C(C)(C)C)n[nH]4)nc3)c2c1 [Compound P-3029, (5-tert-Butyl-2H-pyrazol-3-yl)-[5-(5-methyl-1H-pyrrolo[2,3-b]pyridin-3-ylmethyl)-pyrimidin-2-yl]-amine]
15 | > 8.00 | > 8.00 | > 8.00 | Cc1cnc2[nH]cc(Cc3cnc(Nc4ccc(C(C)(C)C)cc4)nc3)c2c1 [Compound P-3030, (4-tert-Butyl-phenyl)-[5-(5-methyl-1H-pyrrolo[2,3-b]pyridin-3-ylmethyl)-pyrimidin-2-yl]-amine amine]
16 | > 8.00 | > 8.00 | > 8.00 | Cc1cnc2[nH]cc(Cc3cnc(Nc4ccc(C(O)(C(F)(F)F)C(F)(F)F)cc4)nc3)c2c1 [Compound P-3031, 1,1,1,3,3,3-Hexafluoro-2-{4-[5-(5-methyl-1H-pyrrolo[2,3-b]pyridin-3-ylmethyl)-pyrimidin-2-ylamino]-phenyl}-propan-2-ol]
17 | > 6.00 | > 6.00 | > 6.00 | Cc1cnc2[nH]cc(Cc3cnc(Nc4cc(C5CC5)n[nH]4)nc3)c2c1 [Compound P-3032, (5-Cyclopropyl-2H-pyrazol-3-yl)-[5-(5-methyl-1H-pyrrolo[2,3-b]pyridin-3-ylmethyl)-pyrimidin-2-yl]-amine]
18 | > 8.00 | > 8.00 | > 7.00 | CSc1ccc(Nc2ncc(Cc3c[nH]c4ncc(C)cc34)cn2)cc1 [Compound P-3033, [5-(5-Methyl-1H-pyrrolo[2,3-b]pyridin-3-ylmethyl)-pyrimidin-2-yl]-(4-methylsulfanyl-phenyl)-amine]
19 | > 8.00 | > 7.00 | > 7.00 | Cc1cnc2[nH]cc(Cc3cnc(Nc4ccc(S(C)(=O)=O)cc4)nc3)c2c1 [Compound P-3034, (4-Methanesulfonyl-phenyl)-[5-(5-methyl-1H-pyrrolo[2,3-b]pyridin-3-ylmethyl)-pyrimidin-2-yl]-amine]
20 | > 7.00 | > 6.00 | > 7.00 | CCn1ccc(Nc2ncc(Cc3c[nH]c4ncc(C)cc34)cn2)n1 [Compound P-3035, (1-Ethyl-1H-pyrazol-3-yl)-[5-(5-methyl-1H-pyrrolo[2,3-b]pyridin-3-ylmethyl)-pyrimidin-2-yl]-amine]
21 | > 8.00 | > 7.00 | > 6.00 | CCn1cc(Nc2ncc(Cc3c[nH]c4ncc(C)cc34)cn2)cn1 [Compound P-3036, (1-Ethyl-1H-pyrazol-4-yl)-[5-(5-methyl-1H-pyrrolo[2,3-b]pyridin-3-ylmethyl)-pyrimidin-2-yl]-amine]
22 | < 6.00 | < 6.00 | < 6.00 | Cc1cnc2[nH]cc(Cc3cnc(Nc4cc(C(F)(F)F)n[nH]4)nc3)c2c1 [Compound P-3037, [5-(5-Methyl-1H-pyrrolo[2,3-b]pyridin-3-ylmethyl)-pyrimidin-2-yl]-(5-trifluoromethyl-2H-pyrazol-3-yl)-amine]
23 | > 6.00 | > 6.00 | > 6.00 | Cc1cnc2[nH]cc(Cc3cnc(Nc4cc(OC(C)C)n[nH]4)nc3)c2c1 [Compound P-3038, (5-Isopropoxy-2H-pyrazol-3-yl)-[5-(5-methyl-1H-pyrrolo[2,3-b]pyridin-3-ylmethyl)-pyrimidin-2-yl]-amine]
24 | > 7.00 | > 6.00 | > 7.00 | Cc1ccc(Nc2ccc(Cc3c[nH]c4ncc(Cl)cc34)c(F)n2)cn1 [Compound P-3042, [5-(5-Chloro-1H-pyrrolo[2,3-b]pyridin-3-ylmethyl)-6-fluoro-pyridin-2-yl]-(6-methyl-pyridin-3-yl)-amine]
25 | > 7.00 | > 6.00 | > 7.00 | CCOc1ccc(Nc2ccc(C(=O)c3c[nH]c4ncc(C)cc34)c(F)n2)cn1 [Compound P-3045, [6-(6-ethoxy-pyridin-3-ylamino)-2-fluoro-pyridin-3-yl]-(5-methyl-1H-pyrrolo[2,3-b]pyridin-3-yl)-methanone]
26 | > 7.00 | > 6.00 | > 7.00 | CCOc1ncnc2[nH]cc(Cc3ccc(Nc4ccc(Br)nc4)nc3F)c12 [Compound P-4020, (6-Bromo-pyridin-3-yl)-[5-(4-ethoxy-7H-pyrrolo[2,3-d]pyrimidin-5-ylmethyl)-6-fluoro-pyridin-2-yl]-amine]
27 | > 6.00 | < 6.00 | > 6.00 | CCOc1ncnc2[nH]cc(Cc3ccc(Nc4cccnc4)nc3F)c12 [Compound P-4021, [5-(4-Ethoxy-7H-pyrrolo[2,3-d]pyrimidin-5-ylmethyl)-6-fluoro-pyridin-2-yl]-pyridin-3-yl-amine]
28 | > 8.00 | > 6.00 | > 8.00 | CCOc1ccc(Nc2ccc(Cc3c[nH]c4ncnc(C5CC5)c34)c(F)n2)cn1 [Compound P-4026, [5-(4-Cyclopropyl-7H-pyrrolo[2,3-d]pyrimidin-5-ylmethyl)-6-fluoro-pyridin-2-yl]-(6-ethoxy-pyridin-3-yl)-amine]
